Article PMC12362764, “Novel Cyano‐Artemisinin Dimer ZQJ29 Targets PARP1 to Induce Ferroptosis in Pancreatic Cancer Treatment” (Advanced Science, 2025)

System: PANC-1 and KP4 cells
Assay: Colony formation assay
Assay type: cell-based
Conditions: 0, 1, 2.5, 5 µM, concentration-dependent
Procedure: The clonogenicity of pancreatic cancer cells was evaluated using a colony formation assay. PANC‐1 and KP4 cells were seeded into 6‐well plates at ≈200 cells per well in the conditional medium. The cells were treated with different concentrations of ZQJ29 (0, 1, 2.5, and 5 µM) for 24 h. After treatment, the drug‐containing medium was removed, and complete medium was added for an additional […] in a 37 °C incubator with 5% CO2. The plates were then washed with PBS and fixed with 4% paraformaldehyde. After staining with 0.5% crystal violet (Yeasen, Shanghai, China), the colonies were counted manually.

`CC1CCC2C(C)C(OCCN(C#N)CCOC3OC4OC5(C)CCC6C(C)CCC(C3C)C46OO5)OC3OC4(C)CCC1C32OO4` (stereo not shown) [ZQJ29] was tested, and the colony formation was “significantly inhibited”.
